Results on 56 compounds are retold here after BindingDB's records for doi:10.1016/s0960-894x(00)00113-x (Kyoto University, 2000).

Broadly, the IC50 is the concentration at which inhibition is half-maximal. Higher therefore signals weaker potency.

The assay can be described thus: The compound was tested for its inhibitory activity against platelet aggregation.
Consider `CC[C@@H](NC(=O)c1ccc(C(=N)N2CCC(O)CC2)cc1F)C(C)(C)C(=O)N1CCC(CC(=O)O)CC1`, for which half-maximal inhibition (IC50) required 24 nM. Under `CC(C)[C@@H](NC(=O)c1ccc(C(=N)N)cc1)C(C)(C)C(=O)N1CCC(CC(=O)O)CC1` stands 76 nM. The result for `C[C@H](NC(=O)c1ccc(CNC(=N)N)cc1)C(=O)N1CCC(C(=O)O)CC1` reads 708000 nM; that for `CCCCCCOC(/C=C/c1ccc(C(=N)N)cc1)C(C)(C)C(=O)N1CCC(CC(=O)O)CC1` (stereo unspecified), 794 nM.

Turning to `C[C@H](NC(=O)c1ccc(C(=N)N)cc1)C(=O)N1CCC(C(=O)O)CC1`, the IC50 came to 110000 nM. The compound `CC(C)(C(=O)N1CCC(CC(=O)O)CC1)[C@H](NC(=O)c1ccc(C(=N)N)cc1)c1ccc2ccccc2c1` registered a 50% inhibitory concentration (IC50) of 191 nM. The result for `N=C(N)c1ccc(C(=O)N[C@@H](CC(=O)N2CCC(CC(=O)O)CC2)C(=O)OC2CCCCC2)cc1` reads 1900 nM. Under `CC(C)(C(=O)N1CCC(CC(=O)O)CC1)[C@H](NC(=O)c1ccc(C(=N)N)cc1)c1cccc(O)c1` stands 38 nM; under `CC[C@@H](NC(=O)c1ccc(C(=N)N)cc1)C(C)(C)C(=O)N1CCC(CC(=O)O)CC1`, 43 nM. The result for `CC(C)(C(=O)/C=C/c1ccc(C(=N)N)cc1)C(=O)N1CCC(CC(=O)O)CC1` reads 3470 nM. As to `CC[C@@H](NC(=O)c1ccc(C(=N)N)cc1F)C(C)(C)C(=O)N1CCC(CC(=O)O)CC1`, the IC50 was found to be 31 nM. Against the preceding compound, the IC50 is about 110-fold lower. On to `CCCCNC(=N)c1ccc(C(=O)N[C@H](CC)C(C)(C)C(=O)N2CCC(CC(=O)O)CC2)c(F)c1`, for which the half-maximal inhibitory concentration (IC50) stood at 501 nM.

The compound `COC(/C=C/c1ccc(C(=N)N)cc1)C(C)(C)C(=O)N1CCC(CC(=O)O)CC1` (stereo unspecified) gave an IC50 of 126 nM. Under `CC[C@@H](NC(=O)c1ccc(C(=N)N2CCCC2)cc1F)C(C)(C)C(=O)N1CCC(CC(=O)O)CC1` stands 45 nM; under `C[C@@H](NC(=O)c1ccc(C(=N)N)cc1F)C(C)(C)C(=O)N1CCC(CC(=O)O)CC1`, 38 nM; under `N=C(N)c1ccc(C(=O)N[C@@H](CC(=O)N2CCC(CC(=O)O)CC2)C(=O)Oc2ccccc2)cc1`, 4070 nM.

The compound `CCOC(/C=C/c1ccc(C(=N)N)cc1)C(C)(C)C(=O)N1CCC(CC(=O)O)CC1` (stereo unspecified) yielded an IC50 of 129 nM.

The compound `CCCC[C@@H](NC(=O)c1ccc(C(=N)N)cc1F)C(C)(C)C(=O)N1CCC(CC(=O)O)CC1` displayed an IC50 of 37 nM.

For the compound `CC(C)(C(=O)N1CCC(CC(=O)O)CC1)[C@H](NC(=O)c1ccc(C(=N)N)cc1)c1ccc(O)cc1`, it took 110 nM to reach half-maximal inhibition (IC50). Against the preceding compound, the IC50 is about 3-fold higher. Under `C=CCOC(/C=C/c1ccc(C(=N)N)cc1)C(C)(C)C(=O)N1CCC(CC(=O)O)CC1` (stereo unspecified) stands 135 nM; under `CC[C@@H](NC(=O)c1ccc(C(=N)N2CCN(C)CC2)cc1F)C(C)(C)C(=O)N1CCC(CC(=O)O)CC1`, 36 nM; under `CN(CC(=O)N1CCC(C(=O)O)CC1)C(=O)c1ccc(CNC(=N)N)cc1`, 52500 nM. Under `CC(C)(C(=O)N1CCC(CC(=O)O)CC1)[C@H](NC(=O)c1ccc(C(=N)N)cc1)c1cccc(Cl)c1` stands 126 nM; under `CC(C)(CCC(=O)c1ccc(C(=N)N)cc1)C(=O)N1CCC(CC(=O)O)CC1`, 631 nM. The result for `CC[C@@H](NC(=O)c1ccc(C(=N)N2CCOCC2)cc1F)C(C)(C)C(=O)N1CCC(CC(=O)O)CC1` reads 79 nM; that for `CC(C)(C(=O)N1CCC(CC(=O)O)CC1)[C@H](NC(=O)c1ccc(C(=N)N)cc1)c1ccccc1`, 115 nM. For the compound `CC(C)(C(=O)N1CCC(CC(=O)O)CC1)[C@H](NC(=O)c1ccc(C(=N)N)cc1)c1ccc(Cl)cc1`, it took 331 nM to reach half-maximal inhibition (IC50). The result for `CC(C)C[C@@H](NC(=O)c1ccc(C(=N)N)cc1)C(C)(C)C(=O)N1CCC(CC(=O)O)CC1` reads 41 nM. The result for `CN(CC(=O)N1CCC(CC(=O)O)CC1)C(=O)c1ccc(C(=N)N)cc1` reads 7590 nM. Under `C[C@H](NC(=O)c1ccc(C(=N)N)cc1)C(=O)N1CCC(CC(=O)O)CC1` stands 30200 nM; under `CN(CC(=O)N1CCC(CC(=O)O)CC1)C(=O)c1ccc(N=C(N)N)cc1`, 759000 nM. `CCCC[C@@H](NC(=O)c1ccc(C(=N)N)cc1)C(C)(C)C(=O)N1CCC(CC(=O)O)CC1` gave an IC50 of 41 nM. The result for `C[C@@H](CC(=O)N1CCC(CC(=O)O)CC1)NC(=O)c1ccc(C(=N)N)cc1` reads 5010 nM; that for `C#CCN(C(=O)c1ccc(C(=N)N)cc1)[C@H](CCCC)C(C)(C)C(=O)N1CCC(CC(=O)O)CC1`, 708 nM; that for `CCC[C@@H](NC(=O)c1ccc(C(=N)N)cc1)C(C)(C)C(=O)N1CCC(CC(=O)O)CC1`, 41 nM. Under `NC(N)=Nc1ccc(C(=O)NCCC(=O)N2CCC(C(=O)O)CC2)cc1` stands 759000 nM; under `CN(CC(=O)N1CCC(C(=O)O)CC1)C(=O)c1ccc(N=C(N)N)cc1`, 100000 nM; under `N=C(N)c1ccc(C(=O)NCCC(=O)N2CCC(C(=O)O)CC2)cc1`, 33100 nM.

`CC(C)[C@@H](CC(=O)N1CCC(CC(=O)O)CC1)NC(=O)c1ccc(C(=N)N)cc1`: it took 9120 nM to reach half-maximal inhibition (IC50). Under `CC[C@@H](NC(=O)c1ccc(C(=N)N2CCSC2)cc1F)C(C)(C)C(=O)N1CCC(CC(=O)O)CC1` stands 22 nM; under `CN(C(=O)c1ccc(C(=N)N)cc1)[C@H](c1ccccc1)C(C)(C)C(=O)N1CCC(CC(=O)O)CC1`, 151 nM. The result for `N=C(N)c1ccc(C(=O)N[C@H](CC(=O)N2CCC(CC(=O)O)CC2)c2ccccc2)cc1` reads 5250 nM; that for `C/C=C/[C@@H](NC(=O)c1ccc(C(=N)N)cc1)C(C)(C)C(=O)N1CCC(CC(=O)O)CC1`, 85 nM; that for `CCCCC[C@@H](NC(=O)c1ccc(C(=N)N)cc1)C(C)(C)C(=O)N1CCC(CC(=O)O)CC1`, 79 nM.

In turn, `CC(C)(C(=O)N1CCC(CC(=O)O)CC1)C(O)/C=C/c1ccc(C(=N)N)cc1` (stereo unspecified) displayed an IC50 of 302 nM. The result for `CC(C)(C(=O)N1CCC(CC(=O)O)CC1)[C@@H](CCc1ccccc1)NC(=O)c1ccc(C(=N)N)cc1` reads 79 nM.

`CC[C@@H](NC(=O)c1ccc(C(=N)N2CCN(c3ccc(F)cc3)CC2)cc1F)C(C)(C)C(=O)N1CCC(CC(=O)O)CC1` came in with a half-maximal inhibitory concentration (IC50) of 40 nM. This IC50 is about 2-fold lower than that of the compound before. The compound `N=C(N)c1ccc(C(=O)NCCC(=O)N2CCC(COC(=O)O)CC2)cc1` returned an IC50 of 18200 nM. Under `COC(=O)C1CCN(C(=O)CN(C)C(=O)c2ccc(C(=N)N)cc2)CC1` stands 331000 nM; under `CC(C)(C(=O)N1CCC(CC(=O)O)CC1)C(/C=C/c1ccc(C(=N)N)cc1)OCc1ccccc1` (stereo unspecified), 363 nM; under `CN(CCC(=O)N1CCC(CC(=O)O)CC1)C(=O)c1ccc(C(=N)N)cc1`, 6460 nM. The result for `COC(CCc1ccc(C(=N)N)cc1)C(C)(C)C(=O)N1CCC(CC(=O)O)CC1` (stereo unspecified) reads 240 nM; that for `C[C@@H](NC(=O)c1ccc(C(=N)N)cc1)C(C)(C)C(=O)N1CCC(CC(=O)O)CC1`, 41 nM.

In turn, `CC(C)(C(=O)N1CCC(CC(=O)O)CC1)[C@H](NC(=O)c1ccc(C(=N)N)cc1Cl)c1ccccc1` yielded an IC50 of 186 nM. `CC(C)(CNC(=O)c1ccc(C(=N)N)cc1)C(=O)N1CCC(CC(=O)O)CC1` [{1-[3-(4-Carbamimidoyl-benzoylamino)-2,2-dimethyl-propionyl]-piperidin-4-yl}-acetic acid]: the IC50 worked out at 575 nM. This IC50 lies about 3.1-fold higher than the previous one. The result for `CC(C)(/C=C/C(=O)c1ccc(C(=N)N)cc1)C(=O)N1CCC(CC(=O)O)CC1` [{1-[(E)-5-(4-Carbamimidoyl-phenyl)-2,2-dimethyl-5-oxo-pent-3-enoyl]-piperidin-4-yl}-acetic acid] reads 209 nM.
